In patent publication US8940865B2, “Myocardial peptide, preparation method and uses thereof” (Dalian Zhen-Ao Pharmaceutical Co, Ltd., priority 2008, dated 2015):

Experiments:
[1] = system: ischemia/reperfusion damaged rat; assay: Preventive administration, ischemia/reperfusion (LAD ligation) rat model; assay type: in vivo, SD rat; conditions: preventive i.v. 30 min before ligation; for MIS (myocardial infarct size): ischemic area weight/whole heart weight; for CK / LDH / MDA / SOD: rat serum
Description: 70 SD rats (250˜300 g per rat) were taken, wherein, 60 rats were divided into 6 groups evenly and randomly according to weight, every 10 of each group, the remains are kept for replacement of dead animals of each group.
Normal Control Group: carrying out sham operation, threading a silk suture through the left anterior descending coronary artery (LAD) without ligation;
Model Group: intravenous injecting saline solution of 5 ml/kg 30 minutes before ligation, and the preparation of hypoxia/reoxygenation model is the same as Normal Control Group;
Positive Control Group: intravenous injecting Verapamil of 1 ml/kg 30 min before ligation, preparation of the hypoxia/reoxygenation model is the same as Normal Control Group. […]
Preparation of the Model:
(§1) Intraperitoneal injecting 6% Urethane with 20 ml/kg to anaesthetize the animal, fixing the animal on operating table in supine position; being connected with the electrocardiograph to detect the limb II lead electrocardiogram, tracheal intubating and connecting the animal with respirators, taking continuous positive end-expiratory pressure with tidal volume of 6 ml/200 g, frequency of 55/min and breathing ratio of 2:1. Carrying out thoracotomy on the gap between the forth and the fifth ribs of the left border of sternum, separating the ribs and removing the pericardium. Ligating at the left anterior descending coronary artery by using 6/0 silk suture by the sign of left auricle lower margin, and setting a piece of polyethylene pipe with diameter of 1 mm between the ligation silk suture and blood vessel. Ligating the silk suture to press the left anterior descending coronary artery by the polyethylene pipe and cause myocardial ischemia. Taking part of myocardium becoming grey and electrocardiogram S-T segment raising as the sign of that the left anterior descending coronary artery is ligated successfully. Taking out the polyethylene pipe carefully to cause the reperfusion. Verifying the success of reoxygenation by reactive hyperemia of ischemia area and the descending of the raised S-T segment by ½. Reoxygenation for 30 minutes, then sampling blood from abdominal aorta to prepare serum which is used to measure the biochemical index (measuring the content of CK, LDH, MDA, SPD according to the Reagent kits Instruction).
(§2) Rat's heart was taken and after being blooded, the residual blood in the ventricle was cleaned by normal saline to weight the weight of whole heart. Fat was removed, the heart was crosscut into 4˜5 pieces and was put into a tube, to be carried out NBT dye at 37° C. (dying the normal tissue rather than the ischemic tissue), taking photographs. The ischemic area of the myocardium was cut to take a weighing, and then the myocardial infarct size (MIS) was calculated by the ratio of weight of the ischemic area of the myocardium to whole heart weight, which was present by percentage.

[2] = system: ischemia/reperfusion damaged rat; assay: Therapeutic administration, ischemia/reperfusion (LAD ligation) rat model; assay type: in vivo, SD rat; conditions: therapeutic i.v. 5 minutes after ligation; for CK / LDH / MDA / SOD: rat serum
Description: as §1, §2
The drug was intravenously injured on the tail 5 minutes after ligation of LAD, then reperfusion was carried out for 30 min 30 minutes after ligation of LAD. Heart was taken after sampling blood from abdominal aorta. The biochemical index and the myocardial infarction size were measure by using the above method.

For “KGAWSNVLRGMGGAF [CMPC, Lys-Gly-Ala-Trp-Ser-Asn-Val-Leu-Arg-Gly-Met-Gly-Gly-Ala-Phe]”, the “MIS (myocardial infarct size)” value ([1]; Dosage 0.2 mg/kg) was 4.67 ± 0.74 %, the “MIS (myocardial infarct size)” value ([1]; Dosage 0.6 mg/kg) was 4.17 ± 0.62 % and the “MIS (myocardial infarct size)” value ([1]; Dosage 1.8 mg/kg) was 3.47 ± 1.08 %. The CK ([1]; Dosage 0.2 mg/kg) was 2.238 ± 0.274 U/ml, the LDH ([1]; Dosage 0.2 mg/kg) was 7555.34 ± 600.16 U/L and the MDA ([1]; Dosage 0.2 mg/kg) was 4.642 ± 0.978 nmol/mL. It also gave an SOD ([1]; Dosage 0.2 mg/kg) of 134.85 ± 12.55 U/ml, a CK ([1]; Dosage 0.6 mg/kg) of 2.172 ± 0.329 U/ml and an LDH ([1]; Dosage 0.6 mg/kg) of 7531.58 ± 414.64 U/L. The MDA ([1]; Dosage 0.6 mg/kg) was 4.847 ± 0.570 nmol/mL, the SOD ([1]; Dosage 0.6 mg/kg) was 130.43 ± 10.55 U/ml and the CK ([1]; Dosage 1.8 mg/kg) was 2.045 ± 0.358 U/ml. For the same sequence, the LDH ([1]; Dosage 1.8 mg/kg) was 7453.80 ± 366.11 U/L, the MDA ([1]; Dosage 1.8 mg/kg) was 4.371 ± 0.47 nmol/mL and the SOD ([1]; Dosage 1.8 mg/kg) was 135.67 ± 8.64 U/ml. It also gave a CK ([2]; Dosage 0.2 mg/kg) of 2.026 ± 0.532 U/ml, an LDH ([2]; Dosage 0.2 mg/kg) of 7763.83 ± 770.70 U/L and an MDA ([2]; Dosage 0.2 mg/kg) of 4.878 ± 0.430 nmol/mL. The SOD ([2]; Dosage 0.2 mg/kg) was 140.59 ± 20.28 U/ml, the CK ([2]; Dosage 0.6 mg/kg) was 1.748 ± 0.573 U/ml and the LDH ([2]; Dosage 0.6 mg/kg) was 7034.59 ± 1167.17 U/L. It also gave an MDA ([2]; Dosage 0.6 mg/kg) of 4.862 ± 0.468 nmol/mL, an SOD ([2]; Dosage 0.6 mg/kg) of 145.41 ± 10.56 U/ml and a CK ([2]; Dosage 1.8 mg/kg) of 1.707 ± 0.332 U/ml. The LDH ([2]; Dosage 1.8 mg/kg) was 7233.69 ± 297.69 U/L, the MDA ([2]; Dosage 1.8 mg/kg) was 4.685 ± 0.714 nmol/mL and the SOD ([2]; Dosage 1.8 mg/kg) was 143.41 ± 12.14 U/ml. The “MIS (myocardial infarct size)” value ([2]; Dosage 0.2 mg/kg) was 3.95 ± 0.97 %, the “MIS (myocardial infarct size)” value ([2]; Dosage 0.6 mg/kg) was 4.20 ± 0.78 % and the “MIS (myocardial infarct size)” value ([2]; Dosage 1.8 mg/kg) was 3.68 ± 1.39 %.
